Measurements from the NIST ThermoML archive (doi:10.1021/je0201976).

Conditions: Liquid

FC(F)OCC(F)(F)F [1,1,1-trifluoro-2-(difluoromethoxy)ethane]
Conditions	Critical pressure [kPa]	Critical temperature [K]	vapor or sublimation pressure [kPa]
–	3457	444.88	–
294.35 K	–	–	72.3
298.14 K	–	–	84.3
300.2 K	–	–	91.5
303.14 K	–	–	102.8
313.12 K	–	–	148.1
323.16 K	–	–	207.8
333.19 K	–	–	284.6
343.23 K	–	–	381.2
353.26 K	–	–	500.9
363.3 K	–	–	646.8
373.34 K	–	–	823
383.37 K	–	–	1031.9
393.42 K	–	–	1282.6
403.45 K	–	–	1575.8
413.47 K	–	–	1919.5
423.52 K	–	–	2334.2
433.56 K	–	–	2798.5
443.56 K	–	–	3339.2

FC(F)COC(F)(F)C(F)F [1,1,2,2-tetrafluoro-2-(2,2-difluoroethoxy)ethane]
Conditions	Critical density [kg/m3]	Critical pressure [kPa]	Critical temperature [K]	vapor or sublimation pressure [kPa]
–	520	–	–	–
300.91 K	–	–	–	12.8
322.65 K	–	–	–	33.9
332.67 K	–	–	–	50.8
342.69 K	–	–	–	75
352.73 K	–	–	–	106.1
362.73 K	–	–	–	147.5
372.78 K	–	–	–	202.5
382.8 K	–	–	–	268.1
392.83 K	–	–	–	351.4
402.87 K	–	–	–	453.5
412.89 K	–	–	–	576.7
422.92 K	–	–	–	723.9
432.95 K	–	–	–	898.2
442.97 K	–	–	–	1102.4
453 K	–	–	–	1341.6
463.02 K	–	–	–	1615.4
473.05 K	–	–	–	1931
482.09 K	–	–	–	2256.7
491.9 K	–	–	–	2658.1
497.81 K	–	–	–	2932.7
501.3 K	–	–	–	3101.6
Direct measurement	–	3090	–	–
Visual observation in an unstirred cell	–	–	501.08	–

COCC(F)(F)C(F)(F)C(F)(F)C(F)F [1,1,2,2,3,3,4,4-octafluoro-5-methoxypentane]
Conditions	Critical pressure [kPa]	Critical temperature [K]	vapor or sublimation pressure [kPa]
–	2392	546.1	–
301.49 K	–	–	2.3
312.42 K	–	–	4
322.54 K	–	–	6.9
332.62 K	–	–	11.2
342.67 K	–	–	18.1
352.72 K	–	–	29.1
362.75 K	–	–	48
372.79 K	–	–	74.3
382.81 K	–	–	106.8
392.83 K	–	–	147.1
402.86 K	–	–	193.8
412.89 K	–	–	250.4
422.92 K	–	–	320.1
432.94 K	–	–	395.7
442.97 K	–	–	482.8
452.99 K	–	–	585.8
463 K	–	–	710.7
473.04 K	–	–	849.5
483.07 K	–	–	1006.9
492.89 K	–	–	1184.9
502.72 K	–	–	1385.9
512.54 K	–	–	1615.9
522.34 K	–	–	1873.5
532.17 K	–	–	2168.7
541.94 K	–	–	2471.9
545.63 K	–	–	2602.5

CCOC(F)(F)C(F)(F)C(F)(F)C(F)(F)F [1-ethoxy-1,1,2,2,3,3,4,4,4-nonafluorobutane]
Conditions	Critical density [kg/m3]	Critical pressure [kPa]	Critical temperature [K]	vapor or sublimation pressure [kPa]
–	518	–	–	–
309.21 K	–	–	–	22.5
332.68 K	–	–	–	57
342.71 K	–	–	–	80.7
347.73 K	–	–	–	95.4
382.82 K	–	–	–	271.9
392.84 K	–	–	–	349.2
402.87 K	–	–	–	443.3
412.66 K	–	–	–	553.4
422.65 K	–	–	–	684.8
432.89 K	–	–	–	835.3
443.2 K	–	–	–	1011.6
453.14 K	–	–	–	1212.9
473.46 K	–	–	–	1720.7
Direct measurement	–	1976	–	–
Visual observation in an unstirred cell	–	–	482.02	–

FC(C(F)(F)F)C(F)(F)OCC(F)(F)C(F)(F)F (stereo not given)
Conditions	Critical density [kg/m3]	Critical pressure [kPa]	Critical temperature [K]	vapor or sublimation pressure [kPa]
–	567	–	–	–
312.48 K	–	–	–	14.7
342.64 K	–	–	–	54.8
352.72 K	–	–	–	79.1
362.78 K	–	–	–	113.1
372.77 K	–	–	–	157
382.71 K	–	–	–	211.7
402.89 K	–	–	–	360.6
412.9 K	–	–	–	460.7
422.79 K	–	–	–	575.4
432.96 K	–	–	–	717.1
443 K	–	–	–	881.9
453 K	–	–	–	1067.4
461.47 K	–	–	–	1255.3
473.07 K	–	–	–	1548.7
483.09 K	–	–	–	1842.8
486.67 K	–	–	–	1954.3
Direct measurement	–	1950	–	–
Visual observation in an unstirred cell	–	–	486.48	–

COCC(F)(F)C(F)F [1,1,2,2-tetrafluoro-3-methoxypropane]
Conditions	Critical density [kg/m3]	Critical pressure [kPa]	Critical temperature [K]	vapor or sublimation pressure [kPa]
–	453	–	–	–
342.68 K	–	–	–	84.8
347.65 K	–	–	–	101.2
352.72 K	–	–	–	120.5
362.75 K	–	–	–	166.1
372.76 K	–	–	–	222.7
382.79 K	–	–	–	293.4
392.8 K	–	–	–	379.9
402.8 K	–	–	–	484.3
412.88 K	–	–	–	610.7
422.91 K	–	–	–	758.8
432.93 K	–	–	–	934.8
442.97 K	–	–	–	1138.1
452.99 K	–	–	–	1373.5
463.01 K	–	–	–	1642.8
473.02 K	–	–	–	1952
480.13 K	–	–	–	2197.3
489.95 K	–	–	–	2573.3
499.77 K	–	–	–	3005.9
505.06 K	–	–	–	3262.8
505.35 K	–	–	–	3278.9
Direct measurement	–	3279	–	–
Visual observation in an unstirred cell	–	–	505.35	–

COCC(F)(F)C(F)(F)C(F)(F)F [1,1,1,2,2,3,3-heptafluoro-4-methoxybutane]
Conditions	Critical density [kg/m3]	Critical pressure [kPa]	Critical temperature [K]	vapor or sublimation pressure [kPa]
–	497	–	–	–
291.65 K	–	–	–	12.1
302.31 K	–	–	–	20.4
312.43 K	–	–	–	32.3
322.64 K	–	–	–	48.9
332.66 K	–	–	–	71.5
337.71 K	–	–	–	85.4
342.7 K	–	–	–	101.2
347.73 K	–	–	–	119.2
362.74 K	–	–	–	189.2
372.75 K	–	–	–	250.2
382.82 K	–	–	–	326.6
392.85 K	–	–	–	419.6
402.88 K	–	–	–	531.3
412.9 K	–	–	–	664.3
422.92 K	–	–	–	820.3
432.95 K	–	–	–	1004.6
442.98 K	–	–	–	1216.4
453 K	–	–	–	1462.9
463.01 K	–	–	–	1746.1
473.05 K	–	–	–	2071.1
478.44 K	–	–	–	2266.3
481.5 K	–	–	–	2382.5
481.66 K	–	–	–	2389.1
Direct measurement	–	2381	–	–
Visual observation in an unstirred cell	–	–	481.54	–

FC(F)C(F)(F)OCC(F)(F)C(F)(F)F [1,1,1,2,2-pentafluoro-3-(1,1,2,2-tetrafluoroethoxy)propane]
Conditions	Critical density [kg/m3]	Critical pressure [kPa]	Critical temperature [K]	vapor or sublimation pressure [kPa]
–	550	–	–	–
299.64 K	–	–	–	17.7
332.69 K	–	–	–	69.8
337.7 K	–	–	–	84
342.7 K	–	–	–	100.3
347.73 K	–	–	–	119.2
352.74 K	–	–	–	140.6
362.76 K	–	–	–	192.2
372.78 K	–	–	–	256.8
382.81 K	–	–	–	337.6
392.84 K	–	–	–	436.3
402.86 K	–	–	–	555.1
412.89 K	–	–	–	700
422.91 K	–	–	–	868.6
432.95 K	–	–	–	1066.1
442.97 K	–	–	–	1298
447.99 K	–	–	–	1427.4
453 K	–	–	–	1567.3
458.02 K	–	–	–	1718.4
464.03 K	–	–	–	1914.1
468.05 K	–	–	–	2055.2
473.08 K	–	–	–	2246.6
Direct measurement	–	2244	–	–
Visual observation in an unstirred cell	–	–	473.01	–

FC(F)C(F)(F)COC(F)(F)C(F)C(F)(F)F (stereo not given) [1,1,1,2,3,3-hexafluoro-3-(2,2,3,3-tetrafluoropropoxy)propane]
Conditions	Critical pressure [kPa]	Critical temperature [K]	vapor or sublimation pressure [kPa]
–	2172	516.21	–
285.28 K	–	–	6.2
302.65 K	–	–	12.5
312.63 K	–	–	19.8
322.62 K	–	–	30.9
332.69 K	–	–	45.8
342.69 K	–	–	62.9
352.75 K	–	–	88.5
362.72 K	–	–	129.9
372.8 K	–	–	175.3
382.83 K	–	–	229
392.86 K	–	–	294.8
402.89 K	–	–	374.7
412.92 K	–	–	469.1
422.94 K	–	–	581.8
432.97 K	–	–	715.5
443 K	–	–	870.9
453.03 K	–	–	1049.5
463.06 K	–	–	1252.9
473.08 K	–	–	1484.4
481.14 K	–	–	1745.4
490.97 K	–	–	2048
499.97 K	–	–	2137.8
500.79 K	–	–	2176.3
